The NIST ThermoML archive (doi:10.1016/j.fluid.2017.06.019)

Details: Coaxial cylinder method

CCC [propane]
Details	thermal conductivity [W/m/K]
365.72 K, 3978 kPa, Liquid	0.08613
365.72 K, 3979 kPa, Liquid	0.08495
365.72 K, 3980 kPa, Liquid	0.08381
365.72 K, 3985 kPa, Liquid	0.07882
365.72 K, 3990 kPa, Liquid	0.07478
365.72 K, 3995 kPa, Liquid	0.07164
365.72 K, 4000 kPa, Liquid	0.06921
365.72 K, 4010 kPa, Liquid	0.066
365.72 K, 4014 kPa, Liquid	0.06521
365.72 K, 4020 kPa, Liquid	0.06438
365.72 K, 4025 kPa, Liquid	0.06418
365.72 K, 4030 kPa, Liquid	0.06394
365.72 K, 4035 kPa, Liquid	0.06394
365.72 K, 4040 kPa, Liquid	0.06389
365.72 K, 4045 kPa, Liquid	0.06389
365.72 K, 4050 kPa, Liquid	0.06389
365.72 K, 4055 kPa, Liquid	0.06385
365.72 K, 4060 kPa, Liquid	0.06385
365.72 K, 4080 kPa, Liquid	0.06377
365.72 K, 4100 kPa, Liquid	0.06375
365.72 K, 4120 kPa, Liquid	0.06375
365.72 K, 4140 kPa, Liquid	0.06377
365.72 K, 4160 kPa, Liquid	0.06377
365.72 K, 4180 kPa, Liquid	0.06377
365.72 K, 4200 kPa, Liquid	0.06381
365.72 K, 4250 kPa, Liquid	0.06392
365.72 K, 4275 kPa, Liquid	0.06396
365.72 K, 4350 kPa, Liquid	0.06412
365.72 K, 4400 kPa, Liquid	0.06428
365.72 K, 4450 kPa, Liquid	0.06442
365.72 K, 4500 kPa, Liquid	0.06459
365.72 K, 4560 kPa, Liquid	0.06484
365.72 K, 4580 kPa, Liquid	0.0649
365.72 K, 4670 kPa, Liquid	0.06519
365.72 K, 4690 kPa, Liquid	0.06519
366.45 K, 3595 kPa, Gas	0.03694
366.45 K, 3610 kPa, Gas	0.0371
366.45 K, 3880 kPa, Gas	0.04193
366.45 K, 3882 kPa, Gas	0.04198
366.45 K, 3908 kPa, Gas	0.04282
366.45 K, 3915 kPa, Gas	0.04316
366.45 K, 3920 kPa, Gas	0.04339
366.45 K, 3925 kPa, Gas	0.04359
366.45 K, 3930 kPa, Gas	0.04383
366.45 K, 3935 kPa, Gas	0.04406
366.45 K, 3937 kPa, Gas	0.04421
366.45 K, 3949 kPa, Gas	0.04486
366.45 K, 3950 kPa, Gas	0.04487
366.45 K, 3951 kPa, Gas	0.04497
366.45 K, 3952 kPa, Gas	0.04502
366.45 K, 3953 kPa, Gas	0.04507
366.45 K, 3954 kPa, Gas	0.04513
366.45 K, 3955 kPa, Gas	0.04847
366.45 K, 3956 kPa, Gas	0.0498
366.45 K, 3957 kPa, Gas	0.0512
366.45 K, 3958 kPa, Gas	0.05294
366.45 K, 3959 kPa, Gas	0.05452
366.45 K, 3960 kPa, Gas	0.05651
366.45 K, 3961 kPa, Gas	0.05848
366.45 K, 3962 kPa, Gas	0.06058
366.45 K, 3963 kPa, Gas	0.06307
366.45 K, 3964 kPa, Gas	0.06573
366.45 K, 3965 kPa, Gas	0.06816
366.45 K, 3966 kPa, Gas	0.07114
366.45 K, 3967 kPa, Gas	0.07411
366.45 K, 3968 kPa, Gas	0.07748
366.45 K, 3969 kPa, Gas	0.08195
366.45 K, 3970 kPa, Gas	0.08706
366.45 K, 3971 kPa, Gas	0.09339
366.45 K, 3972 kPa, Gas	0.09783
366.45 K, 3973 kPa, Gas	0.1017
366.45 K, 3974 kPa, Gas	0.108
366.45 K, 3975 kPa, Gas	0.114
366.45 K, 3976 kPa, Gas	0.1185
366.45 K, 3977 kPa, Gas	0.1239
366.45 K, 3978 kPa, Gas	0.1288
366.45 K, 3979 kPa, Gas	0.1341
366.45 K, 3980 kPa, Gas	0.1393
366.45 K, 3981 kPa, Gas	0.1449
366.45 K, 3982 kPa, Gas	0.1502
366.45 K, 3983 kPa, Gas	0.1559
366.45 K, 3984 kPa, Gas	0.1614
366.45 K, 3985 kPa, Gas	0.1661
366.45 K, 3986 kPa, Gas	0.1732
366.45 K, 3987 kPa, Gas	0.1794
366.45 K, 3988 kPa, Gas	0.1853
366.45 K, 3989 kPa, Gas	0.1916
366.45 K, 3990 kPa, Gas	0.1977
366.45 K, 3991 kPa, Gas	0.2045
366.45 K, 3992 kPa, Gas	0.2108
366.45 K, 3993 kPa, Gas	0.2174
366.45 K, 3994 kPa, Gas	0.224
366.45 K, 3995 kPa, Gas	0.2309
366.45 K, 3996 kPa, Gas	0.2389
366.45 K, 3997 kPa, Liquid	0.2535
366.45 K, 3998 kPa, Liquid	0.2389
366.45 K, 3999 kPa, Liquid	0.2261
366.45 K, 4000 kPa, Liquid	0.2153
366.45 K, 4001 kPa, Liquid	0.2051
366.45 K, 4002 kPa, Liquid	0.196
366.45 K, 4003 kPa, Liquid	0.1879
366.45 K, 4004 kPa, Liquid	0.1801
366.45 K, 4005 kPa, Liquid	0.1734
366.45 K, 4006 kPa, Liquid	0.1669
366.45 K, 4007 kPa, Liquid	0.1612
366.45 K, 4008 kPa, Liquid	0.1563
366.45 K, 4009 kPa, Liquid	0.1513
366.45 K, 4010 kPa, Liquid	0.1467
366.45 K, 4011 kPa, Liquid	0.1425
366.45 K, 4012 kPa, Liquid	0.1387
366.45 K, 4013 kPa, Liquid	0.1345
366.45 K, 4014 kPa, Liquid	0.132
366.45 K, 4015 kPa, Liquid	0.1298
366.45 K, 4016 kPa, Liquid	0.127
366.45 K, 4017 kPa, Liquid	0.1241
366.45 K, 4018 kPa, Liquid	0.1223
366.45 K, 4019 kPa, Liquid	0.1202
366.45 K, 4020 kPa, Liquid	0.1175
366.45 K, 4021 kPa, Liquid	0.1145
366.45 K, 4022 kPa, Liquid	0.1126
366.45 K, 4023 kPa, Liquid	0.1108
366.45 K, 4024 kPa, Liquid	0.1089
366.45 K, 4025 kPa, Liquid	0.107
366.45 K, 4026 kPa, Liquid	0.1052
366.45 K, 4027 kPa, Liquid	0.1035
366.45 K, 4028 kPa, Liquid	0.1018
366.45 K, 4029 kPa, Liquid	0.1003
366.45 K, 4030 kPa, Liquid	0.09876
366.45 K, 4031 kPa, Liquid	0.09718
366.45 K, 4032 kPa, Liquid	0.09578
366.45 K, 4033 kPa, Liquid	0.09438
366.45 K, 4034 kPa, Liquid	0.0931
366.45 K, 4035 kPa, Liquid	0.09185
366.45 K, 4036 kPa, Liquid	0.09064
366.45 K, 4037 kPa, Liquid	0.08946
366.45 K, 4038 kPa, Liquid	0.0883
366.45 K, 4039 kPa, Liquid	0.08718
366.45 K, 4040 kPa, Liquid	0.08608
366.45 K, 4045 kPa, Liquid	0.08137
366.45 K, 4050 kPa, Liquid	0.0775
366.45 K, 4055 kPa, Liquid	0.07438
366.45 K, 4057 kPa, Liquid	0.07324
366.45 K, 4065 kPa, Liquid	0.06968
366.45 K, 4070 kPa, Liquid	0.06809
366.45 K, 4075 kPa, Liquid	0.0668
366.45 K, 4080 kPa, Liquid	0.0658
366.45 K, 4085 kPa, Liquid	0.06508
366.45 K, 4090 kPa, Liquid	0.06449
366.45 K, 4095 kPa, Liquid	0.06445
366.45 K, 4100 kPa, Liquid	0.06429
366.45 K, 4105 kPa, Liquid	0.06425
366.45 K, 4110 kPa, Liquid	0.06421
366.45 K, 4115 kPa, Liquid	0.06418
366.45 K, 4120 kPa, Liquid	0.06414
366.45 K, 4125 kPa, Liquid	0.0641
366.45 K, 4130 kPa, Liquid	0.06408
366.45 K, 4140 kPa, Liquid	0.06408
366.45 K, 4150 kPa, Liquid	0.06404
366.45 K, 4160 kPa, Liquid	0.064
366.45 K, 4170 kPa, Liquid	0.06396
366.45 K, 4180 kPa, Liquid	0.06392
366.45 K, 4190 kPa, Liquid	0.06394
366.45 K, 4200 kPa, Liquid	0.06392
366.45 K, 4210 kPa, Liquid	0.06392
366.45 K, 4220 kPa, Liquid	0.06388
366.45 K, 4230 kPa, Liquid	0.06388
366.45 K, 4240 kPa, Liquid	0.06387
366.45 K, 4250 kPa, Liquid	0.06387
366.45 K, 4260 kPa, Liquid	0.0639
366.45 K, 4270 kPa, Liquid	0.0639
366.45 K, 4280 kPa, Liquid	0.0639
366.45 K, 4290 kPa, Liquid	0.0639
366.45 K, 4300 kPa, Liquid	0.06392
366.45 K, 4330 kPa, Liquid	0.06396
366.45 K, 4400 kPa, Liquid	0.0641
366.45 K, 4410 kPa, Liquid	0.06416
366.45 K, 4477 kPa, Liquid	0.06435
366.45 K, 4491 kPa, Liquid	0.06439
367.32 K, 4010 kPa, Gas	0.04654
367.32 K, 4012 kPa, Gas	0.04665
367.32 K, 4014 kPa, Gas	0.04687
367.32 K, 4025 kPa, Gas	0.04792
367.32 K, 4026 kPa, Gas	0.05076
367.32 K, 4027 kPa, Gas	0.05394
367.32 K, 4028 kPa, Gas	0.05642
367.32 K, 4029 kPa, Gas	0.05957
367.32 K, 4030 kPa, Gas	0.06288
367.32 K, 4031 kPa, Gas	0.06655
367.32 K, 4032 kPa, Gas	0.06997
367.32 K, 4033 kPa, Gas	0.07414
367.32 K, 4034 kPa, Gas	0.07824
367.32 K, 4035 kPa, Gas	0.08231
367.32 K, 4036 kPa, Gas	0.08718
367.32 K, 4037 kPa, Gas	0.09169
367.32 K, 4038 kPa, Gas	0.09661
367.32 K, 4039 kPa, Gas	0.1018
367.32 K, 4040 kPa, Gas	0.1068
367.32 K, 4041 kPa, Gas	0.1118
367.32 K, 4042 kPa, Gas	0.1171
367.32 K, 4043 kPa, Gas	0.1226
367.32 K, 4044 kPa, Gas	0.1282
367.32 K, 4045 kPa, Gas	0.134
367.32 K, 4046 kPa, Gas	0.1397
367.32 K, 4047 kPa, Gas	0.145
367.32 K, 4048 kPa, Gas	0.1514
367.32 K, 4050 kPa, Gas	0.1645
367.32 K, 4051 kPa, Gas	0.1714
367.32 K, 4052 kPa, Gas	0.1781
367.32 K, 4053 kPa, Gas	0.1856
367.32 K, 4054 kPa, Gas	0.1925
367.32 K, 4055 kPa, Gas	0.1998
367.32 K, 4056 kPa, Gas	0.2078
367.32 K, 4057 kPa, Gas	0.2153
367.32 K, 4058 kPa, Gas	0.2233
367.32 K, 4059 kPa, Gas	0.2315
367.32 K, 4060 kPa, Liquid	0.2315
367.32 K, 4061 kPa, Liquid	0.2164
367.32 K, 4062 kPa, Liquid	0.2079
367.32 K, 4063 kPa, Liquid	0.1998
367.32 K, 4064 kPa, Liquid	0.1925
367.32 K, 4065 kPa, Liquid	0.1857
